Assay: Immunization of animals with purified galactolipid, sera tested for antibodies
Format: in vivo, rabbits and rat
Details: five immunizations, Freund's adjuvant, sera taken at D57
Experimental: Two rabbits and one rat were immunized with purified DGDG ([…]), according to the following protocol: • a first immunization (D0) by multisite subcutaneous injection (total volume of 1 ml) of 0.5 mg of antigen in 0.5 ml of a solution of NaCl (0.9%), emulsified in 0.5 ml of complete Freund's adjuvant, • a second immunization (D10) by subcutaneous (1 ml) and intramuscular (0.5 ml) injection of 0.5 mg of antigen in 0.75 ml of a solution of NaCl (0.9%), emulsified in 0.75 ml of incomplete Freund's adjuvant, • a third immunization (D21) by subcutaneous (1 ml) and intramuscular (0.5 ml) injection of 0.5 mg of antigen in 0.75 ml of a solution of NaCl (0.9%), emulsified in 0.75 ml of incomplete Freund's adjuvant, • a fourth immunization (D36) by intramuscular (0.5 ml) and intravenous (0.5 ml) injection: 0.17 mg of antigen in 0.25 ml of a solution of NaCl (0.9%), emulsified in 0.25 ml of incomplete Freund's adjuvant, injected intramuscularly, and 0.33 mg of antigen in 0.5 ml of a solution of NaCl (0.9%), injected intravenously, and • a fifth immunization (D50) by intramuscular (0.5 ml) and intravenous (0.5 ml) injection: 0.17 mg of antigen in 0.25 ml of a solution of NaCl (0.9%), emulsified in 0.25 ml of incomplete Freund's adjuvant, injected intramuscularly, and 0.33 mg of antigen in 0.5 ml of a solution of NaCl (0.9%), injected intravenously. […]

Substance	induction of active serum (antibodies against the immunizing lipid)
1,2-diacyl-(α-D-galactopyranosyl-(1→6)-β-D-galactopyranosyl-(1′→3))-sn-glycerol [DGDG]	made it possible to obtain active sera containing antibodies that recognize DGDG
monogalactosyldiacylglycerol [MGDG]	did not make it possible to obtain active serum
